Source: ChEMBL document CHEMBL1137284, “Farnesoid X-activated receptor antagonists from a marine sponge Spongia sp” (Bioorg Med Chem Lett, 2006)

Tests used:
[1] = Cytotoxicity against CV1 cells transfected with human FXR by MTT method; format: cell-based; conditions: CV-1
[2] = molecular target: T1, Bile acid receptor (Homo sapiens, UniProt Q96RI1); experiment: Antagonist activity against FXR assessed as transactivation of luciferase reporter gene in CV1 cells; format: functional, cell-based, CV-1
T1 sequence (Q96RI1 whole entry): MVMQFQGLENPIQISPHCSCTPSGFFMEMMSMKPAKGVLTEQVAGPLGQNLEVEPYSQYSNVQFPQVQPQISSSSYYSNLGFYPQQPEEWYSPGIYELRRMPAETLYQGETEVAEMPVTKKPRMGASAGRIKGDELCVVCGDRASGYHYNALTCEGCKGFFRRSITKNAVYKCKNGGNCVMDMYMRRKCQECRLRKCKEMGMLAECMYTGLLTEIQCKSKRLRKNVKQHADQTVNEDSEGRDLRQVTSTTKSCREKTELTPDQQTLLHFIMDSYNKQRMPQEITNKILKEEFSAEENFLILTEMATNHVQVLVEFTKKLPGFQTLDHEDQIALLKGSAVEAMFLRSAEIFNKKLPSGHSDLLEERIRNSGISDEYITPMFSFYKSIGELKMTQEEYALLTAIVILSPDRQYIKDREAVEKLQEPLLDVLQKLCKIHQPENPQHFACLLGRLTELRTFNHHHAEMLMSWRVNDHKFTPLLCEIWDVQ

SMILES | IC50 [1] | IC50 [2]
CC(=O)OC[C@@]12CCC3C(C)(C)CCC[C@]3(C)C1C[C@@H](O)[C@@]1(C)C2CC=C2CO[C@@H](O)[C@@H]21 (stereo not given in full) | 29.2 µM | 25.3 µM
CO[C@@H]1OCC2=CCC3[C@]4(C)CCC5C(C)(C)CCC[C@]5(C)C4C[C@@H](O)[C@]3(C)[C@H]21 (stereo not given in full) | 86.9 µM | 24.8 µM
CC1(C)CCC[C@@]2(C)C1CC[C@]1(CO)C2C[C@@H](O)[C@@]2(C)C1CC=C1CO[C@@H](O)[C@@H]12 (stereo not given in full) | > 100 µM | 64.5 µM
CC(=O)OC[C@@]12CCC3C(C)(C)CCC[C@]3(C)C1C[C@@H](OC(C)=O)[C@@]1(C)C2CC=C2CO[C@@H](O)[C@@H]21 (stereo not given in full) | 32.7 µM | 8.1 µM
CC(=O)O[C@@H]1CC2[C@@]3(C)CCCC(C)(C)C3CC[C@@]2(C)C2CC=C3CO[C@@H](O)[C@@H]3[C@]21C (stereo not given in full) | 98.5 µM | 81.1 µM
